Test results: patent US20200231562A1, “NOVEL MACROLIDE ANTIBIOTICS” (HELMHOLTZ-ZENTRUM FÜR INFEKTIONSFORSCHUNG GMBH, priority 2014, published 2020)
Converted amounts (≈) assume the structure as drawn. Like-named read-outs stand apart in the source and are kept apart here.

Assays:
Assay type in all cases: cell-based
[1] = system: Pseudomonas aeruginosa K799/61; experiment: Agar diffusion assay; conditions: 50 μL of 0.5 mg in 1 mL methanol per 7 mm hole, n.a. = no activity observed, read-out: diameter of inhibition zone
Protocol: (§1) Antimicrobial activities of the gulmirecins were determined in a primary screen against Bacillus subtilis ATCC 6633, Staphylococcus aureus SG511, Staphylococcus auricularis DSM 20609, Mycobacterium vaccae IMET 10670, Pseudomonas aeruginosa K799/61, Escherichia coli SG458, Sporobolomyces salmonicolor SBUG 549, Candida albicans ATCC14053 and Penicillium notatum JP 36. To this end, holes with 7 mm diameter were aseptically punched in the respective agar medium. Subsequently, the agar plates were inoculated with the test organisms. 0.5 mg of every test compound was dissolved in 1 mL of methanol, and 50 μL of this solution was transferred to a single hole. Ciprofloxacin and amphotericin B served as positive controls. After evaporation of the solvent, the agar plates were incubated depending on the growth conditions of the test organisms. […] The test results are shown in Table 6 below, wherein the given values represent the diameters of the respective inhibition zone in the agar diffusion assay.

[2] = system: Staphylococcus auricularis DSM 20609; experiment: Agar diffusion assay; conditions: DSM20609, 50 μL of 0.5 mg in 1 mL methanol per 7 mm hole, n.a. = no activity observed, read-out: diameter of inhibition zone
Protocol: as §1

[3] = system: Staphylococcus aureus SG511; experiment: Agar diffusion assay; conditions: 50 μL of 0.5 mg in 1 mL methanol per 7 mm hole, n.a. = no activity observed, read-out: diameter of inhibition zone
Protocol: as §1

[4] = system: Mycobacterium vaccae IMET 10670; experiment: Agar diffusion assay; conditions: Mycolicibacterium vaccae, IMET10670; 50 μL of 0.5 mg in 1 mL methanol per 7 mm hole; n.a. = no activity observed; read-out: diameter of inhibition zone
Protocol: as §1

[5] = system: Bacillus subtilis ATCC 6633; experiment: Agar diffusion assay; conditions: ATCC6633, 50 μL of 0.5 mg in 1 mL methanol per 7 mm hole, n.a. = no activity observed, read-out: diameter of inhibition zone
Protocol: as §1

[6] = system: Escherichia coli SG458; experiment: Agar diffusion assay; conditions: 50 μL of 0.5 mg in 1 mL methanol per 7 mm hole, n.a. = no activity observed, read-out: diameter of inhibition zone
Protocol: as §1

[7] = system: methicillin-resistant S. aureus (MRSA); experiment: Bouillon dilution assay (MIC90); conditions: Staphylococcus aureus, tryptic soy broth, 37° C., 16 h
Protocol: Before incubation, 3 was added in decreasing concentrations ([…] to 12.5 μg/ml). After incubation, the OD600 was measured. The experiment was run in triplicate. Ciprofloxacin was used as a positive control.

[8] = system: Penicillium notatum JP 36; experiment: Agar diffusion assay; conditions: 50 μL of 0.5 mg in 1 mL methanol per 7 mm hole; n.a. = no activity observed
Protocol: as §1

[9] = system: Candida albicans ATCC14053; experiment: Agar diffusion assay; conditions: 50 μL of 0.5 mg in 1 mL methanol per 7 mm hole; n.a. = no activity observed
Protocol: as §1

[10] = system: Sporobolomyces salmonicolor SBUG 549; experiment: Agar diffusion assay; conditions: 50 μL of 0.5 mg in 1 mL methanol per 7 mm hole; n.a. = no activity observed
Protocol: as §1

[11] = system: S. aureus N315 Mt50DscA.9; experiment: Susceptibility (MIC) of Disciformycin A-resistant mutant; conditions: Staphylococcus aureus
[12] = system: S. aureus N315 mutant Mt50DscA.11; experiment: as above; conditions: Staphylococcus aureus
[13] = system: S. aureus N315 wildtype (WT); experiment: Susceptibility (MIC) of S. aureus N315 wildtype; conditions: Staphylococcus aureus
[14] = system: S. aureus N315 mutant Mt50DscA.5; experiment: Susceptibility (MIC) of Disciformycin A-resistant mutant; conditions: Staphylococcus aureus
[15] = system: S. aureus N315 mutant Mt50DscA.1; experiment: as above; conditions: Staphylococcus aureus
[16] = system: Micrococcus luteus DSM 20030; experiment: MIC by microbroth dilution; conditions: 16 h, 30° C., n.i. = no inhibition up to 67 μg/ml
Protocol: (§2) Bacterial strains. Bacterial wildtype strains used in susceptibility assays were either part of HZI's strain collection or purchased from the German Collection of Microorgansims and Cell Cultures (Deutsche Sammlung von Mikroorganismen und Zellkulturen, DSMZ).
(§3) Minimum inhibitory concentration (MIC) was determined by microbroth dilution. In brief, overnight cultures of bacteria (EBS medium) were diluted to OD600 0.01. Disciformycin A (1) or B (2) dissolved in DMSO was added directly to the cultures in 96-well plates (Sarstedt, flat bottom) in duplicate and the compound was tested in serial dilution. […] After 16 h incubation at 900 rpm and 30° C. on a microplate shaker (Titramax, Heidolph) absorbance at 600 nm was measured using a microplate reader (POLARstar Omega, BMG Labtech). MIC values were determined by sigmoidal curve fitting.

[17] = system: Chromobacterium violaceum DSM 30191; experiment: MIC by microbroth dilution; conditions: 16 h, 30° C., n.i. = no inhibition up to 67 μg/ml
Protocol: as §2, §3

[18] = system: Staphylococcus aureus DSM 346; experiment: MIC by microbroth dilution; conditions: Staphylococcus aureus, DSM346, 16 h, 30° C., n.i. = no inhibition up to 67 μg/ml, read-out: MIC
Protocol: as §2, §3

[19] = system: Escherichia coli DSM 1116; experiment: MIC by microbroth dilution; conditions: 16 h, 30° C., n.i. = no inhibition up to 67 μg/ml
Protocol: as §2, §3

[20] = system: Mycobacterium diemhoferi DSM 43524; experiment: MIC by microbroth dilution; conditions: Mycobacterium, DSM43524, 16 h, 30° C., n.i. = no inhibition up to 67 μg/ml, read-out: MIC
Protocol: as §2, §3

[21] = system: Staphylococcus aureus Newman; experiment: MIC by microbroth dilution; conditions: 16 h, 30° C., n.i. = no inhibition up to 67 μg/ml
Protocol: as §2, §3

[22] = system: Nocardioides simplex DSM 20130; experiment: MIC by microbroth dilution; conditions: Pimelobacter simplex, DSM20130, 16 h, 30° C., n.i. = no inhibition up to 67 μg/ml, read-out: MIC
Protocol: as §2, §3

[23] = system: Staphylococcus camosus DSM 20501; experiment: MIC by microbroth dilution; conditions: 30° C., n.i. = no inhibition up to 67 μg/ml
Protocol: as §2, §3

[24] = system: Staphylococcus aureus N315 (MRSA); experiment: MIC by microbroth dilution; conditions: 16 h, 30° C., n.i. = no inhibition up to 67 μg/ml
Protocol: as §2, §3

[25] = system: Pseudomonas aeruginosa DSM 50071; experiment: MIC by microbroth dilution; conditions: 16 h, 30° C., n.i. = no inhibition up to 67 μg/ml
Protocol: as §2, §3

[26] = system: Mycobacterium sp. DSM 43270; experiment: MIC by microbroth dilution; conditions: 16 h, 30° C., n.i. = no inhibition up to 67 μg/ml
Protocol: as §2, §3

[27] = system: Staphylococcus aureus (MRSA) DSM-11822; experiment: MIC by microbroth dilution; conditions: microbroth dilution, 16 h, 30° C., n.i. = no inhibition up to 67 μg/ml
Protocol: as §2, §3

[28] = system: Staphylococcus aureus Mu50 (MRSA/VRSA) ATCC 700699; experiment: MIC by microbroth dilution; conditions: 16 h, 30° C., n.i. = no inhibition up to 67 μg/ml
Protocol: as §2, §3

[29] = system: Paenibacillus polymyxa DSM 36; experiment: MIC by microbroth dilution; conditions: Paenibacillus polymyxa, DSM36, 16 h, 30° C., n.i. = no inhibition up to 67 μg/ml, read-out: MIC
Protocol: as §2, §3

[30] = system: Bacillus subtilis DSM 10; experiment: MIC by microbroth dilution; conditions: Bacillus subtilis, DSM10, 16 h, 30° C., n.i. = no inhibition up to 67 μg/ml, read-out: MIC
Protocol: as §2, §3

[31] = system: S. aureus N315 mutant Mt50DscA.6; experiment: Susceptibility (MIC) of Disciformycin A-resistant mutant; conditions: Staphylococcus aureus
[32] = system: Chinese hamster ovary CHO-K1 cells (ACC-110); experiment: Cytotoxicity (MTT) assay, antiproliferative activity; conditions: Cricetulus griseus, 120 h, CHO-K1, 5 d incubation
Protocol: (§4) Half maximal inhibitory concentrations (IC50) in μg/ml of disciformycin A (1) and disciformycin B (2) for inhibiting the proliferative activity of human HCT-116 colon carcinoma cells, mouse fibroblast cells L929, and Chinese hamster ovary CHO-K1 cells were determined. Cells were seeded at 6×10^3 cells per well of 96-well plates (Corning CellBind®) in complete medium (180 μl) and directly treated with disciformycin dissolved in DMSO in serial dilution. The compound was tested in duplicate, as well as the internal solvent control. After 5 d incubation, 5 mg/ml MTT in PBS (20 μL) was added per well and it was further incubated for 2 h at 37° C. The medium was then discarded and cells were washed with PBS (100 μl) before adding 2-propanol/10N HCl (250:1, v/v; 100 μl) in order to dissolve formazan granules. The absorbance at 570 nm was measured using a microplate reader (EL808, Bio-Tek Instruments Inc.). The amount of formazan, i.e. relative absorption, is thereby proportional to the number of actively proliferating cells.

[33] = system: Mouse fibroblast cells L929 (ACC-2); experiment: as above; conditions: 120 h, L929, 5 d incubation
Protocol: as §4

[34] = system: HCT-116 colon carcinoma cells (ACC-581); experiment: as above; conditions: Homo sapiens, 120 h, HCT-116, 5 d incubation
Protocol: as §4

[35] = system: S. aureus N315 mutant Mt50DscA.2; experiment: Susceptibility (MIC) of Disciformycin A-resistant mutant; conditions: Staphylococcus aureus
[36] = system: S. aureus N315 mutant Mt50DscA.10; experiment: as above; conditions: Staphylococcus aureus
[37] = system: S. aureus N315 mutant Mt50DscA.4; experiment: as above; conditions: Staphylococcus aureus
[38] = system: S. aureus N315 mutant Mt50DscA.8; experiment: as above; conditions: Staphylococcus aureus
[39] = system: S. aureus Newman in PMA-differentiated human THP-1 cell line (macrophages); experiment: Intra-macrophage activity
From the text: The PMA-differentiated human THP-1 cell line (macrophages) was used as cellular host for infection with S. aureus Newman at an MOI (multiplicity of infection) of 10. […] Intracellular bacteria were recovered and serial dilutions were streaked out on CASO-Agar for cfu counting. The reference drug rifampicin reduced the number of intracellular bacteria by ca. 4 logs (at 8×MIC).

[40] = system: S. aureus N315 mutant Mt50DscA.3; experiment: Susceptibility (MIC) of Disciformycin A-resistant mutant; conditions: Staphylococcus aureus
[41] = Staphylococcus aureus, read-out: MIC

## O=C(O)c1cn(C2CC2)c2cc(N3CCNCC3)c(F)cc2c1=O [Ciprofloxacin, reference compound]
[1]
  zone of inhibition at 25 µg/hole: 38 mm
[2]
  zone of inhibition at 25 µg/hole: 20 mm
[3]
  zone of inhibition at 25 µg/hole: 19 mm
[4]
  zone of inhibition at 25 µg/hole: 24 mm
[5]
  zone of inhibition at 25 µg/hole: 30 mm
[6]
  zone of inhibition at 25 µg/hole: 34 mm
[7]
  MIC90: 75.4 µM (≈ 25 µg/mL)

## C[C@@H]1[C@H](O)[C@@H](C)/C=C/C=C/C=C/C=C/C=C/C=C/C=C/[C@H](O[C@@H]2O[C@H](C)[C@@H](O)[C@H](N)[C@@H]2O)C[C@@H]2O[C@](O)(C[C@@H](O)C[C@@H](O)[C@H](O)CC[C@@H](O)C[C@@H](O)CC(=O)O[C@H]1C)C[C@H](O)[C@H]2C(=O)O [Amphotericin B]
[8]
  diameter of inhibition zone: 18 mm
[9]
  diameter of inhibition zone: 22 mm
[10]
  diameter of inhibition zone: 19 mm

## C/C=C(/C)[C@H]1C/C=C(\C)[C@@H](O[C@H]2O[C@H](CO)[C@@H](O)[C@@H]2O)[C@H](OC(=O)CC(C)C)C(=O)/C=C/[C@H](C)C(=O)O1 [Compound 2, disciformycin B]
[11]
  MIC: > 64 µg/mL
[12]
  MIC: 32 µg/mL (≈ 61 µM)
[13]
  MIC: 1 µg/mL (≈ 1.91 µM)
[14]
  MIC: 16 µg/mL (≈ 30.5 µM)
[15]
  MIC: > 64 µg/mL
[16]
  MIC: n.i.
[17]
  MIC: n.i.
[18]
  MIC: 3.3 µg/mL (≈ 6.29 µM)
[19]
  MIC: n.i.
[20]
  MIC: 33.3 µg/mL (≈ 63.5 µM)
[21]
  MIC: 1.2 µg/mL (≈ 2.29 µM)
[21]; Staphylococcus aureus, NEWMAN, read-out: MIC
  MIC: 1.2 µg/mL (≈ 2.29 µM)
[22]
  MIC: 16.6 µg/mL (≈ 31.6 µM)
[23]; 16 h
  MIC: 2.4 µg/mL (≈ 4.57 µM)
[23]; Staphylococcus, DSM20501, 16 h, read-out: MIC
  MIC: 2.4 µg/mL (≈ 4.57 µM)
[24]
  MIC: 1.2 µg/mL (≈ 2.29 µM)
[24]; Staphylococcus aureus, MRSA, read-out: MIC
  MIC: 1.2 µg/mL (≈ 2.29 µM)
[25]
  MIC: n.i.
[26]
  MIC: n.i.
[27]; [41]
  MIC: 0.6 µg/mL (≈ 1.14 µM)
[27]
  MIC: 0.6 µg/mL (≈ 1.14 µM)
[28]
  MIC: 0.6 µg/mL (≈ 1.14 µM)
[28]; [41]
  MIC: 0.6 µg/mL (≈ 1.14 µM)
[29]
  MIC: 16.6 µg/mL (≈ 31.6 µM)
[30]
  MIC: 0.83 µg/mL (≈ 1.58 µM)
[31]
  MIC: > 64 µg/mL
[32]
  IC50: > 10 µg/mL
[33]
  IC50: > 10 µg/mL
[34]
  IC50: > 10 µg/mL
[35]
  MIC: > 64 µg/mL
[36]
  MIC: > 64 µg/mL
[37]
  MIC: > 64 µg/mL
[38]
  MIC: > 64 µg/mL
[39]; 18 h, MOI 10, cfu counting, tested at 1×, 4× and 8×MIC
  reduction of the number of intracellular bacteria: 3 logs
[39]; 18 h treatment of infected macrophages
  cytotoxicity towards THP-1 host cells: without causing any apparent cytotoxicity
[40]
  MIC: > 64 µg/mL
